# According to US20260070945A1, “MACROCYCLIC IMMUNOMODULATORS” (Bristol-Myers Squibb Company, priority 2022, published 2026):
# *1 amine or outer side, *2 acyl side, *3 side chain or, on linkers, in order; H or OH if unused. Where a SMILES comes first, the peptide text is derived from it. Bridges are numbered along the chain shown (N, C = ends). [ ]: non-standard residue; d: D form. The star is where a group is joined. ξ: configuration not given here. Phe(3-CF3) = N[C@@H](Cc1cccc(C(F)(F)F)c1)C(=O)O; Phe(4-CF3) = N[C@@H](Cc1ccc(C(F)(F)F)cc1)C(=O)O; Ala(morpholin-4-yl) = N[C@@H](CN1CCOCC1)C(=O)O; Phe(4-COOH) = N[C@@H](Cc1ccc(C(=O)O)cc1)C(=O)O; Bip = N[C@@H](Cc1ccc(-c2ccccc2)cc1)C(=O)O; Phe(3-F) = N[C@@H](Cc1cccc(F)c1)C(=O)O; Phe(3-Me) = Cc1cccc(C[C@H](N)C(=O)O)c1; γGlu = O=C(O)[C@H](CCC(=O)[*:2])N[*:1]; Abu(3S-NH2) = C[C@H](N)[C@H](N)C(=O)O; NH(CH2)12COOH = O=C(O)CCCCCCCCCCCCN*; X11 = CC[C@@H](C)C(N[*:1])C(=O)[*:2]; Val(3-OH) = CC(C)(O)[C@H](N)C(=O)O; 4Pal = N[C@@H](Cc1ccncc1)C(=O)O; Cha = N[C@@H](CC1CCCCC1)C(=O)O; Cit = NC(=O)NCCC[C@H](N)C(=O)O; Ile(3ξ) = CCC(C)[C@H](N)C(=O)O; Thr(3ξ) = CC(O)[C@H](N)C(=O)O; NMeNle = CCCC[C@H](NC)C(=O)O; Carboxymethyl = O=C(O)C*; NMeA = CN[C@@H](C)C(=O)O; Orn = NCCC[C@H](N)C(=O)O; Aun = NCCCCCCCCCCC(=O)O; Dab = NCC[C@H](N)C(=O)O; Nva = CCC[C@H](N)C(=O)O; Dap = NC[C@H](N)C(=O)O; AEEA = NCCOCCOCC(=O)O
# Target: T1, PD-1/PD-L1 interaction (PE-labeled human PD-L1-Ig binding to Jurkat cell line over-expressing human PD-1) (Homo sapiens, UniProt Q15116)
# T1 construct: expressed in transfected cells; host or cells: Jurkat
# T1 sequence (Q15116 25-288): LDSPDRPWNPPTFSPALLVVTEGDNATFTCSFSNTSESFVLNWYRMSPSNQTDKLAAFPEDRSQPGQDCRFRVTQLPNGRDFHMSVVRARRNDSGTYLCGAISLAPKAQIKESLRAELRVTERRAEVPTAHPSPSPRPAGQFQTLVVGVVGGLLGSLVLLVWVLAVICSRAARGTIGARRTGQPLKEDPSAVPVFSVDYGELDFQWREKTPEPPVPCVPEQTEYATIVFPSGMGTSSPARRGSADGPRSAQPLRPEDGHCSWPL
# Assay: Jurkat-PD-1 Cell Binding High-Content Screening Assay (CBA)
# Details: Jurkat-hPD-1 cells, PE-labeled PD-L1-Ig 20 nM final; read-out: Jurkat HPD1 PDL1 IC50
# Protocol: Example 2: Jurkat-PD-1 Cell Binding High-Content Screening Assay (CBA)
# Phycoerythrin (PE) was covalently linked to the Ig epitope tag of human PD-L1-Ig and fluorescently-labeled PD-L1-Ig was used for binding studies with a Jurkat cell line over-expressing human PD-1 (Jurkat-PD-1). Briefly, 8×10^3 Jurkat-hPD-1 cells were seeded into 384 well plates in 20 μl of DMEM supplemented with 10% fetal calf serum. 100 nl of compound was added to cells followed by incubation at 37° C. for 2 hours. Then, 5 μl of PE-labeled PD-L1-Ig (20 nM final), diluted in DMEM supplemented with 10% fetal calf serum. After 1 hour incubation, cells were fixed with […] in dPBS containing 10 μg/ml Hoechst 33342 and then washed 3× in 100 μl dPBS. Data was collected and processed using a Cell Insight NXT High Content Imager and associated software.
row,IC50,SMILES
1,94 nM,CC[C@@H](C)C1NC(=O)[C@H](Cc2ccc(-c3ccccc3)cc2)NC(=O)[C@H](CC(C)C)NC(=O)[C@H](Cc2cccc(C)c2)NC(=O)[C@H](CC(=O)O)NC(=O)[C@H](Cc2ccc(O)cc2)NC(=O)[C@H](Cc2ccccc2)NC(=O)CSC[C@@H](C(=O)N[C@@H](CCN)C(=O)NCCCCCCCCCCC(=O)O)NC(=O)[C@H](CCCCN)NC(=O)[C@H](C(C)C)NC(=O)[C@H](CC(C)C)NC(=O)[C@H](CCN)NC(=O)[C@@H](C)NC(=O)[C@H](C)N(C)C1=O (stereo partly drawn) [Example 2197] ({CH2CO}-FYD[Phe(3-Me)]L[Bip][X11][NMeA][dA][Dab]LVKC[Dab][Aun]-OH; thioether N-14)
2,21.5 nM,CC(C)C[C@H]1NC(=O)[C@H](C)N(C)C(=O)[C@H](CCC(N)=O)NC(=O)[C@H](Cc2ccc(-c3ccccc3)cc2)NC(=O)[C@H](Cc2ccc(C(=O)O)cc2)NC(=O)[C@H](Cc2cccc(C(F)(F)F)c2)NC(=O)[C@H](CC(=O)O)NC(=O)[C@H](Cc2ccc(OCC(=O)O)cc2)NC(=O)[C@H]([C@H](C)N)NC(=O)CSC[C@@H](C(=O)N[C@@H](CCN)C(=O)NCCOCCOCC(=O)N[C@@H](CCC(=O)NCCOCCOCC(=O)NCCCCCCCCCCCCC(=O)O)C(=O)O)NC(=O)[C@H](Cc2c[nH]cn2)NC(=O)[C@H](C(C)(C)O)NC(=O)[C@H](CC2CCCCC2)NC(=O)[C@H](CCN)NC1=O [Example 1203] ({CH2CO}-[Abu(3S-NH2)]Y(Carboxymethyl)D[Phe(3-CF3)][Phe(4-COOH)][Bip]Q[NMeA][dL][Dab][Cha][Val(3-OH)]HC[Dab][AEEA][γGlu][AEEA]-{NH(CH2)12COOH}; thioether N-14)
3,15.6 nM,CC(C)C[C@H]1NC(=O)[C@H](C)N(C)C(=O)[C@H](CCCNC(N)=O)NC(=O)[C@H](Cc2ccc(-c3ccccc3)cc2)NC(=O)[C@H](Cc2ccc(C(=O)O)cc2)NC(=O)[C@H](Cc2cccc(C(F)(F)F)c2)NC(=O)[C@H](CC(=O)O)NC(=O)[C@H](Cc2ccc(OCC(=O)O)cc2)NC(=O)[C@H](CN2CCOCC2)NC(=O)CSC[C@@H](C(=O)N[C@@H](CCN)C(=O)NCCCCCCCCCCCCC(=O)O)NC(=O)[C@H](Cc2c[nH]cn2)NC(=O)[C@H](C(C)(C)O)NC(=O)[C@H](CC2CCCCC2)NC(=O)[C@H](CCN)NC1=O [Example 1193] ({CH2CO}-[Ala(morpholin-4-yl)]Y(Carboxymethyl)D[Phe(3-CF3)][Phe(4-COOH)][Bip][Cit][NMeA][dL][Dab][Cha][Val(3-OH)]HC[Dab]-{NH(CH2)12COOH}; thioether N-14)
4,24.5 nM,Cc1cccc(C[C@@H]2NC(=O)[C@H](CC(=O)O)NC(=O)[C@H](Cc3ccc(C(=O)O)cc3)NC(=O)[C@H](C(C)O)NC(=O)CSC[C@@H](C(=O)N[C@@H](CCN)C(=O)NCCOCCOCC(=O)NCCCCCCCCCCC(=O)O)NC(=O)[C@H](Cc3ccc(C(=O)O)cc3)NC(=O)[C@H](C(C)C)NC(=O)[C@H](CC3CCCCC3)NC(=O)[C@H](CCN)NC(=O)[C@@H](CC(C)C)NC(=O)[C@H](C)N(C)C(=O)[C@H](Cc3ccc(OCC(=O)O)cc3)NC(=O)[C@H](Cc3ccc(-c4ccccc4)cc3)NC(=O)[C@H](Cc3ccc(C(=O)O)cc3)NC2=O)c1 (stereo partly drawn) [Example 2477] ({CH2CO}-[Thr(3ξ)][Phe(4-COOH)]D[Phe(3-Me)][Phe(4-COOH)][Bip]Y(Carboxymethyl)[NMeA][dL][Dab][Cha]V[Phe(4-COOH)]C[Dab][AEEA][Aun]-OH; thioether N-14)
5,143 nM,CC(C)C[C@H]1NC(=O)[C@H](C)N(C)C(=O)[C@H](Cc2ccc(OCC(=O)O)cc2)NC(=O)[C@H](Cc2ccc(-c3ccccc3)cc2)NC(=O)[C@H](Cc2ccc(OCC(=O)O)cc2)NC(=O)[C@H](Cc2c[nH]c3ccccc23)NC(=O)[C@H](CC(=O)O)NC(=O)[C@H](Cc2ccc(OCC(=O)O)cc2)NC(=O)[C@H]([C@@H](C)O)NC(=O)CSC[C@@H](C(=O)N[C@@H](CCCN)C(=O)NCCOCCOCC(=O)NCCCCCCCCCCC(=O)O)NC(=O)[C@H]([C@@H](C)O)NC(=O)[C@H](C(C)C)NC(=O)[C@H](CC2CCCCC2)NC(=O)[C@H](CCN)NC1=O [Example 1394] ({CH2CO}-TY(Carboxymethyl)DWY(Carboxymethyl)[Bip]Y(Carboxymethyl)[NMeA][dL][Dab][Cha]VTC[Orn][AEEA][Aun]-OH; thioether N-14)
6,12.7 nM,Cc1cccc(C[C@@H]2NC(=O)[C@H](CC(=O)O)NC(=O)[C@H](Cc3ccc(C(=O)O)cc3)NC(=O)[C@H](Cc3ccncc3)NC(=O)CSC[C@@H](C(=O)N[C@@H](CCN)C(=O)NCCCCCCCCCCC(=O)O)NC(=O)[C@H](CO)NC(=O)[C@H](C(C)(C)O)NC(=O)[C@H](CC3CCCCC3)NC(=O)[C@H](CCN)NC(=O)[C@@H](CC(C)C)NC(=O)[C@H](C)N(C)C(=O)[C@H](Cc3ccc(OCC(=O)O)cc3)NC(=O)[C@H](Cc3ccc(-c4ccccc4)cc3)NC(=O)[C@H](Cc3cccc(F)c3)NC2=O)c1 [Example 1309] ({CH2CO}-[4Pal][Phe(4-COOH)]D[Phe(3-Me)][Phe(3-F)][Bip]Y(Carboxymethyl)[NMeA][dL][Dab][Cha][Val(3-OH)]SC[Dab][Aun]-OH; thioether N-14)
7,172 nM,Cc1cccc(C[C@@H]2NC(=O)[C@H](CC(=O)O)NC(=O)[C@H](Cc3ccc(OCC(=O)O)cc3)NC(=O)[C@H](CN)NC(=O)CSC[C@@H](C(=O)N[C@@H](CCC(=O)O)C(=O)NCCCCCCCCCCC(=O)O)NC(=O)[C@H](CO)NC(=O)[C@H](C(C)C)NC(=O)[C@H](CC(C)C)NC(=O)[C@H](CC(N)=O)NC(=O)[C@@H](CC(C)C)NC(=O)[C@H](C)N(C)C(=O)[C@H](C(C)C)NC(=O)[C@H](Cc3ccc(-c4ccccc4)cc3)NC(=O)[C@H](CC(C)C)NC2=O)c1 [Example 1068] ({CH2CO}-[Dap]Y(Carboxymethyl)D[Phe(3-Me)]L[Bip]V[NMeA][dL]NLVSCE[Aun]-OH; thioether N-14)
8,34.2 nM,CCC(C)[C@@H]1NC(=O)[C@H](Cc2ccc(-c3ccccc3)cc2)NC(=O)[C@H](C(C)C)NC(=O)[C@H](Cc2c[nH]c3ccccc23)NC(=O)[C@H](CC(=O)O)NC(=O)[C@H](Cc2ccc(O)cc2)NC(=O)[C@H](CC(N)=O)NC(=O)CSC[C@@H](C(=O)N[C@H](CC(N)=O)C(=O)NCCOCCOCC(=O)NCCCCCCCCCCC(=O)O)NC(=O)[C@H](CO)NC(=O)[C@H](C(C)C)NC(=O)[C@H](CC(C)C)NC(=O)[C@H](CCN)NC(=O)[C@@H](CC(C)C)NC(=O)[C@H](C)N(C)C1=O (stereo partly drawn) [Example 2059] ({CH2CO}-NYDWV[Bip][Ile(3ξ)][NMeA][dL][Dab]LVSC[dN][AEEA][Aun]-OH; thioether N-14)

# Same assay, conditions: PE-labeled PD-L1-Ig 20 nM final, Jurkat-hPD-1 cells; read-out: Jurkat HPD1 PDL1 IC50
row,IC50,SMILES
1,89.6 nM,CCC(C)[C@@H]1NC(=O)[C@H](Cc2ccc(-c3ccccc3)cc2)NC(=O)[C@H](Cc2ccc(C(F)(F)F)cc2)NC(=O)[C@H](Cc2cccc(F)c2)NC(=O)[C@H](CC(=O)O)NC(=O)[C@H](Cc2ccc(OCC(=O)O)cc2)NC(=O)[C@H](Cc2cnc[nH]2)NC(=O)CSC[C@@H](C(=O)N[C@@H](CCN)C(=O)NCCOCCOCC(=O)NCCCCCCCCCCC(=O)O)NC(=O)[C@H](CCC(=O)O)NC(=O)[C@H](C(C)C)NC(=O)[C@H](CC2CCCCC2)NC(=O)[C@H](CCN)NC(=O)[C@@H](CC(C)C)NC(=O)[C@H](C)N(C)C1=O (stereo partly drawn) [Example 2592] ({CH2CO}-HY(Carboxymethyl)D[Phe(3-F)][Phe(4-CF3)][Bip][Ile(3ξ)][NMeA][dL][Dab][Cha]VEC[Dab][AEEA][Aun]-OH; thioether N-14)
2,32 nM,CCCC[C@H]1C(=O)N[C@@H](Cc2ccc(C(=O)O)cc2)C(=O)N[C@@H](CC(=O)O)C(=O)N[C@@H](Cc2cccc(C)c2)C(=O)N[C@@H](Cc2ccc(C(=O)O)cc2)C(=O)N[C@@H](Cc2ccc(-c3ccccc3)cc2)C(=O)N[C@@H](Cc2ccc(C(=O)O)cc2)C(=O)N(C)[C@@H](C)C(=O)N[C@H](CC(C)C)C(=O)N[C@@H](CCN)C(=O)N[C@@H](CC2CCCCC2)C(=O)N[C@@H](C(C)C)C(=O)N[C@@H](CCC(=O)O)C(=O)N[C@H](C(=O)N[C@@H](CCN)C(=O)NCCOCCOCC(=O)NCCCCCCCCCCC(=O)O)CSCC(=O)N1C [Example 2543] ({CH2CO}-[NMeNle][Phe(4-COOH)]D[Phe(3-Me)][Phe(4-COOH)][Bip][Phe(4-COOH)][NMeA][dL][Dab][Cha]VEC[Dab][AEEA][Aun]-OH; thioether N-14)
3,35.6 nM,CCC[C@@H]1NC(=O)[C@H](C(C)(C)O)NC(=O)[C@H](CC2CCCCC2)NC(=O)[C@H](Cc2cnc[nH]2)NC(=O)[C@@H](CC(C)C)NC(=O)[C@H](C)N(C)C(=O)[C@H](C(C)CC)NC(=O)[C@H](Cc2ccc(-c3ccccc3)cc2)NC(=O)[C@H](C(C)C)NC(=O)[C@H](Cc2c[nH]c3ccccc23)NC(=O)[C@H](CC(=O)O)NC(=O)[C@H](Cc2ccc(OCC(=O)O)cc2)NC(=O)[C@H](Cc2ccc(OCC(=O)O)cc2)NC(=O)CSC[C@@H](C(=O)N[C@@H](CCN)C(=O)NCCOCCOCC(=O)NCCCCCCCCCCC(=O)O)NC1=O (stereo partly drawn) [Example 2589] ({CH2CO}-Y(Carboxymethyl)Y(Carboxymethyl)DWV[Bip][Ile(3ξ)][NMeA][dL]H[Cha][Val(3-OH)][Nva]C[Dab][AEEA][Aun]-OH; thioether N-14)
4,11.5 nM,CC(C)C[C@H]1NC(=O)[C@H](C)N(C)C(=O)[C@H](Cc2ccc(C(=O)O)cc2)NC(=O)[C@H](Cc2ccc(-c3ccccc3)cc2)NC(=O)[C@H](Cc2ccc(C(=O)O)cc2)NC(=O)[C@H](Cc2cccc(C(F)(F)F)c2)NC(=O)[C@H](CC(=O)O)NC(=O)[C@H](Cc2ccc(C(=O)O)cc2)NC(=O)[C@H](C(C)O)NC(=O)CSC[C@@H](C(=O)N[C@@H](CCN)C(=O)NCCCCCCCCCCC(=O)O)NC(=O)[C@H](CCC(=O)O)NC(=O)[C@H](C(C)C)NC(=O)[C@H](CC2CCCCC2)NC(=O)[C@H](CCN)NC1=O (stereo partly drawn) [Example 2572] ({CH2CO}-[Thr(3ξ)][Phe(4-COOH)]D[Phe(3-CF3)][Phe(4-COOH)][Bip][Phe(4-COOH)][NMeA][dL][Dab][Cha]VEC[Dab][Aun]-OH; thioether N-14)
